Measurements from US9512139B2, “Conformationally constrained, fully synthetic macrocyclic compounds” (POLYPHOR AG, priority 2009, dated 2016).

Key:
[1] = biological target: T1, human Kv1.3 (Homo sapiens, UniProt P22001); experiment: Thallium-sensitive fluorescence assay for the voltage gated ion channel Kv1.3 in Jurkat cells; assay type: cell-based; settings: for inhibition at 10 µM: Jurkat, read-out: KV1,3 antagonist activity [% Inhibition at 10 μM]; for IC50: read-out: KV1,3 antagonist activity IC50
T1 construct: expressed in transfected cells; host or cells: Jurkat cells
T1 sequence (P22001 whole entry): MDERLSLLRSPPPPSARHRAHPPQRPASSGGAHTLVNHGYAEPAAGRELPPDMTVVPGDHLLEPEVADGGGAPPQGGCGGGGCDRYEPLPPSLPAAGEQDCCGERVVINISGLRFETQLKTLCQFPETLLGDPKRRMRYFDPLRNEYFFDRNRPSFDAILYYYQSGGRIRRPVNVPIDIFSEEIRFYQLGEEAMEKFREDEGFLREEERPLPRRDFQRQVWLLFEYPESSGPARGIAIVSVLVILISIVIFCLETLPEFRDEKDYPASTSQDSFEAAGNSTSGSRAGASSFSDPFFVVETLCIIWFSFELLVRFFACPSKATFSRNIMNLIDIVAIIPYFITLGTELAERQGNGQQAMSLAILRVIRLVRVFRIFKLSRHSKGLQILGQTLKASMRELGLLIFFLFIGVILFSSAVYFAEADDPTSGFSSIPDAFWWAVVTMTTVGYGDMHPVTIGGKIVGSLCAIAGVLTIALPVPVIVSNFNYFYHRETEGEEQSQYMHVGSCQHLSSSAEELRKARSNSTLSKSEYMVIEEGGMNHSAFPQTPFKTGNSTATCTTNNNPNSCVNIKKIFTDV
Experimental: 2. Assay for the Voltage Gated Ion Channel Kv1.3
Assays were performed and analyized with a FLIPR^TETRA device as specified above.
Compounds for inhibition of ion channel Kv1.3 were assayed in Jurkat cells recombinantly expressing human Kv1.3. For high throughput screening a thallium-sensitive, fluorescence-based assay was used. […] To identify blockers of this ion channel the cells were incubated with different concentrations of compounds 5 min before increasing the potassium and thallium concentration. The fluorescence signals by increasing potassium were then compared in the absence and presence of compounds. Dose response curves were established by adding different concentrations of compounds and analyzing the signal. As reference Kv1.3 blockers margatoxin and quinidine in Cl-free buffer were used as described in the literature.
The results of the Kv1.3 assay are depicted in Table 51 below.

[2] = in vitro; assay type: in vitro ADME, human; settings: human, plasma; for Plasma Stability 240 min hum [% remain.]: 4 h
Experimental: Example compounds were dissolved in DMSO/H2O 90:10 to a final concentration of 10 mM for plasma stability determination and metabolic stability determination.
Human plasma (3-5 donors, Blutspendedienst SRK, Basel) and CD-1 mouse plasma (mixed gender pool >50 animals, Innovative Research, CA, USA) are both sodium citrate stabilized. The assay is performed in triplicates at 10 μM compound concentration and 37° C. Samples are taken at 0, 15, 60, and 240 minutes and stopped by precipitation with 2 volumes of acetonitrile. The supernatant is collected, evaporated and reconstituted in a 5% acetonitrile solution to be analyzed by HPLC/MS/MS. The resulting peak area counts are expressed in percent of the 0 value and used to determine the endpoint stability in % and the half life in minutes. In order to monitor assay integrity the degradation of propantheline is assayed with every experimental set.

[3] = in vitro; assay type: in vitro ADME, mouse; settings: plasma; for Plasma Stability 240 min mouse [% remain.]: 4 h
[4] = Metabolic stability assay, human microsomes; assay type: in vitro ADME; settings: human, microsomes; for Metabolic Stability 60 min hum [% remain.]: 1 h
[5] = Metabolic stability assay, CD-1 mouse microsomes; assay type: in vitro ADME; settings: microsomes; for Metabolic Stability 60 min mouse [% remain.]: 1 h
[6] = biological target: T2, Purinoreceptor P2Y1 (Homo sapiens, UniProt P47900); experiment: Ca2+ assay (FLIPR) for the GPCR purinoreceptor P2Y1, agonist and antagonist mode; assay type: cell-based; settings: P2Y1 receptor
T2 construct: host or cells: Ca2+ optimized hematopoietic cell lines (rat)
T2 sequence (P47900 whole entry): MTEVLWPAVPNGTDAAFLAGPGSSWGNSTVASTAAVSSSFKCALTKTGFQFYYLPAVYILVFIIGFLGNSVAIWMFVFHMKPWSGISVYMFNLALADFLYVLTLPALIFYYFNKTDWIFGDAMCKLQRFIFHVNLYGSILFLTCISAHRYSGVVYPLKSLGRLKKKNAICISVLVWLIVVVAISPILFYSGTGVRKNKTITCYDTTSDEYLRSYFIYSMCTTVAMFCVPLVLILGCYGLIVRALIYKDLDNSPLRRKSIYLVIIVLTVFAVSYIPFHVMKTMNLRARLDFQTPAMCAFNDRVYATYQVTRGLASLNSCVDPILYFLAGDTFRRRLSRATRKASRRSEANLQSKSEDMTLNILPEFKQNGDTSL
Experimental: Biological and Pharmacological Methods 1. Ca^2+ Assays for the GPCRs Motilin Receptor, Prostaglandin F (FP) Receptor, 5-hydroxytryptamine 2B (5-HT2B) Receptor, and Purinoreceptor P2Y1
Assays were performed using on a FLIPR^TETRA fluorometric imaging plate reader (Molecular Devices) with ScreenWorks Version 2 (Molecular Devices) as device operating and data analysis software.
Dose dependent agonist and antagonist activities were determined. Percentage activation and percentage inhibition values were determined.
Percentage activation was determined upon initial addition of the sample compounds followed by 10 minutes incubation at 25° C. Following compound incubation, reference agonists were added at EC80 to determine percentage inhibition.
Reference agonists were purchased from reputable commercial vendors and prepared according to each ligand's specifications. All handling of ligands were done to ensure proper control throughout the experiments.
Example compounds were weighed on a Microbalance (Mettler MX5) and dissolved in 100% DMSO to a final concentration of 2.5 mM and subsequently diluted into the assay buffer.
The Assay buffer was a supplemented HBSS (Hank's Balanced Salt Solution). HBSS was supplemented with 20 mM HEPES (4-(2-hydroxyethyl)-piperazin-1-ethansulfonic acid) and 2.5 mM Probenecid (Sigma P8761).
GPCR assays were performed using Ca^2+ optimized hematopoietic cell lines (rat) with cultures never exceeding 90% confluency. Cells were harvested and seeded (from cultures at less than 90% confluency) at 50000 cells/well for a 96-well plate (12500 cells/well for 384). After seeding, the assay plates were incubated for forty-five (45) minutes at room temperature. After room temperature incubation, the assay plates were incubated at 37° C. 5% CO2 for 24 hours prior to assaying.
All GPCR assays were performed using Fluo-8 Ca^2+ dye. Ca^2+ dye was prepared at 1× dye concentration in GPCR assay buffer. After 24 hours of incubation, cells were washed with GPCR assay buffer, and then Ca^2+-dye (100 μL/well) was added.
The plates were incubated for 90 minutes at 30° C. 5% CO2 prior to FLIPR assay.
Compound plates were prepared to add 50 μL/well during the agonist assay mode. During the FLIPR assay, 50 μL/well from the compound plate was diluted 3-fold into the existing 100 μL/well from the dye loading step. Therefore all compounds were prepared as 3× the final concentration desired in the assay.
After completion of the first single addition assay run, assay plate was removed from the FLIPR Tetra and placed at 25° C. for seven (7) minutes before antagonist assay.
Using the EC80 values determined during the agonist assay, all pre-incubated sample compound and reference antagonist (if applicable) wells were stimulated at the EC80 of the reference agonist. As reference ligands for the first three assays their obvious natural ligands motilin, prostaglandin F2α, and serotonin (5-HT, 5-Hydroxytryptamine) were used; and for the P2Y1 assay 2MeSATP (2-methyl-thio-adeno-sine 5′-triphosphate, i.e. (2R,3S,4R)-5-(6-amino-2-methylsulfanyl-purin-9-yl)-3,4-dihydroxy-tetrahydrofuran-2-yl]methyl (hydroxy-phosphonooxy-phosphoryl)hydrogen phosphate) was applied.
After the addition of the reference agonist fluorescence was monitored for 180 sec using FLIPR Tetra.
Data Analysis and Results:
From the FLIPR data, with negative control correction enabled, the maximum statistic for each well was exported and percentage activation relative to Emax control was calculated.

[7] = system: Wnt/Beta-Catenin pathway (LEF-TCF-bla SW480 cells); experiment: Wnt/Beta-Catenin (APC-/-) LEF-TCF-bla SW480 inhibitor screen, constitutively activated; assay type: cell-based
Experimental: (§1) 3. Assays for the Wnt-Pathway
(§2) For determining the activity of the test compounds on the Wnt-pathway each substances war subjected to two distinct assays: The first (Wnt/Beta-Catenin) assay screened for inhibitors of the Wnt-pathway while the second (MAPK/MEK/B-raf) was conducted in order to confirm that the test compounds modulate the β-catenin-dependent, canonical Wnt pathway and are not acting via a possibly competing β-catenin-independent, noncanonical Wnt messaging system.
(§3) Both assays were performed and analyzed with a Tecan Safire^2 fluorescence plate reader.
Wnt/Beta-Catenin (APC−/−)—LEF-TCF-bla SW480—Inhibitor Screen, Constitutively Activated
(§4) LEF-TCF-bla SW480 cells are thawed and resuspended in Assay Media (OPTI-MEM, 0.5% dialyzed FBS, 0.1 mM NEAA, 1 mM Sodium Pyruvate, 100 U/mL/100 μg/mL Pen/Strep) to a concentration of 312,500 cells/mL. 4 μL of a 10× serial dilution of ICG-001 (control inhibitor starting concentration, 10,000 nM) or compounds are added to appropriate wells of a TC-Treated assay plate. 32 μL of cell suspension (10,000 cells) is added to the wells. 4 μL of Assay Media is added to all wells to bring the final assay volume to 40 μL. The plate is incubated for 16-24 hours at 37° C./5% CO2 in a humidified incubator. 8 μL of 1 μM Substrate Loading Solution is added to each well and the plate is incubated for 2 hours at room temperature.

[8] = system: MAPK/MEK/B-raf pathway (AP1-bla A375 cells); experiment: MAPK/MEK/B-raf AP1-bla A375 inhibitor screen, constitutively activated (negative control of the Wnt assay); assay type: cell-based; settings: read-out: AP receptor gene activity IC50
Experimental: as §1, §2, §3
MAPK/MEK/B-raf—APl-bla A375—Inhibitor Screen, Constitutively Activated
as §4, with “AP1-bla A375” for “LEF-TCF-bla SW480”, “Raf1 Kinase Inhibitor” for “ICG-001”
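Wherever Plasma Stability 240 min mouse [% remain.] is given: sodium citrate stabilized mouse plasma, parent compound quantified by HPLC/MS/MS relative to its peak area at time zero, run in triplicate.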
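Wherever Plasma Stability T½ [min] mouse is given: sodium citrate stabilized mouse plasma, parent compound quantified by HPLC/MS/MS relative to its peak area at time zero, run in triplicate.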

With CCCCC(=O)N[C@H]1C[C@H]2COc3cccc(c3)C(=O)N(C)CC[C@H](NC(=O)OCc3ccccc3)C(=O)N2C1 [Ex. 166, benzyl N-[(4S,6S,10S)-13-methyl-9,14-dioxo-6-(pentanoylamino)-2-oxa-8,13-diazatricyclo[13.3.1.0^4,8]nonadeca-1(19),15,17-trien-10-yl]carbamate] the inhibition at 10 µM [1] was 20%.
In the case of CN1CCC(NC(=O)OCc2ccccc2)C(=O)N2CC(NC(=O)Cc3ccc4ccccc4c3)CC2COc2cccc(c2)C1=O [Ex. 168, benzyl N-[(4S,6S,10S)-13-methy1-6-{[2-(2-naphthyl)acetyl]amino}-9,14-dioxo-2-oxa-8,13-diazatricyclo [13.3.1.0^4,8]nonadeca-1(19),15,17-trien-10-yl]carbamate], the inhibition at 10 µM [1] is reported as 44%, the IC50 [1] is reported as 1690 nM and the Plasma Stability T½ [min] hum ([2]; 10 µM) is reported as > 240 min. For the same compound, the “Plasma Stability 240 min hum [% remain.]” value ([2]; 10 µM) was 85 % remain, the Plasma Stability T½ [min] mouse ([3]; both, CD-1, mouse, 10 µM) was > 240 min and the “Plasma Stability 240 min mouse [% remain.]” value ([3]; both, CD-1, mouse, 10 µM) was 99 % remain. For the same compound, the half-life at 10 µM ([4]; both sexes) was 25 min, the “Metabolic Stability 60 min hum [% remain.]” value ([4]; both, 10 µM) was 17 % remain and the half-life at 10 µM ([5]; both sexes, CD-1, mouse) was 26 min. For the same compound, the “Metabolic Stability 60 min mouse [% remain.]” value ([5]; both, CD-1, mouse, 10 µM) was 21 % remain.
With CCCCC(=O)N[C@H]1C[C@H]2COc3cccc(c3)C(=O)N(C)CC[C@H](NC(=O)CCc3ccncc3)C(=O)N2C1 [Ex. 170] the “KV1,3 antagonist activity [% Inhibition at 10 μM]” value ([1]; 10 μM) was 10%, the Plasma Stability T½ [min] hum [2] was > 240 min and the “Plasma Stability 240 min hum [% remain.]” value [2] was 92 % remain. The Plasma Stability T½ [min] mouse ([3]; mouse) was > 240 min, the “Plasma Stability 240 min mouse [% remain.]” value ([3]; mouse) was 100 % remain and the Metabolic Stability T½ [min] hum [4] was > 60 min. For the same compound, the “Metabolic Stability 60 min hum [% remain.]” value [4] was 60 % remain, the Metabolic Stability T½ [min] mouse ([5]; mouse) was > 60 min and the “Metabolic Stability 60 min mouse [% remain.]” value ([5]; mouse) was 86 % remain.
CCCCC(=O)N[C@H]1C[C@H]2COc3cccc(c3)C(=O)N(C)CC[C@H](NC(=O)c3ccc4ccccc4c3)C(=O)N2C1 [Ex. 171, N-[(4S,6S,10S)-13-methyl-9,14-dioxo-6-(pentanoylamino)-2-oxa-8,13-diazatricyclo[13.3.1.0^4,8]nonadeca-1(19),15,17-trien-10-yl]-2-naphthamide] gave an inhibition at 10 µM [1] of 12%.
With CN1CC[C@H](NC(=O)Cc2cccc3ccccc23)C(=O)N2C[C@@H](NC(=O)Cc3ccc4ccccc4c3)C[C@H]2COc2cccc(c2)C1=O [Ex. 177, N-[(4S,6S,10S)-13-methyl-6-{[2-(2-naphthyl)acetyl]amino}-9,14-dioxo-2-oxa-8,13-diazatricyclo[13.3.1.0^4,8]nonadeca-1(19),15,17-trien-10-yl]-2-(1-naphthyl)acetamide] the inhibition at 10 µM [1] was 54% and the IC50 [1] was 3500 nM.
In the case of CN1CC(=O)N2C[C@H](NC(=O)OC(C)(C)C)C[C@H]2CSc2cccc(c2)C(=O)N(C)[C@H](C(=O)NCc2ccc3ccccc3c2)CCC1=O [Ex. 316, tert-butyl N-[(4S,6R,15S)-11,16-dimethyl-15-{[(2-naphthylmethyl)amino]carbonyl}-9,12,17-trioxo-2-thia-8,11,16-triazatricyclo[16.3.1.0^4,8]docosa-1(22),18,20-trien-6-yl]carbamate], the inhibition at 10 µM [6] is reported as 57%.
For CC(=O)N[C@@H]1C[C@H]2CSc3cccc(c3)C(=O)N(C)[C@H](C(=O)NCc3ccc4ccccc4c3)CCC(=O)N(C)CC(=O)N2C1 [Ex. 320, (4S,6R,15S)-6-(acetylamino)-11,16-dimethyl-N-(2-naphthylmethyl)-9,12,17-trioxo-2-thia-8,11,16-triazatricyclo[16.3.1.0^4,8]docosa-1(22),18,20-triene-15-carboxamide], the inhibition at 10 µM [6] was 19%.
CN1CC(=O)N2C[C@H](NC(=O)CCc3ccncc3)C[C@H]2CSc2cccc(c2)C(=O)N(C)[C@H](C(=O)NCc2ccc3ccccc3c2)CCC1=O [Ex. 321, (4S,6R,15S)-11,16-dimethyl-N-(2-naphthylmethyl)-9,12,17-trioxo-6-{[3-(4-pyridinyl)propanoyl]amino}-2-thia-8,11,16-triazatricyclo[16.3.1.0^4,8]docosa-1(22),18,20-triene-15-carboxamide] gave an IC50 [6] of 7.5 µM and an inhibition at 10 µM [6] of 45%.
Work on CCCCC(=O)N[C@@H]1C[C@H]2CSc3cccc(c3)C(=O)N(C)[C@H](C(=O)NCc3ccc4ccccc4c3)CCC(=O)N(C)CC(=O)N2C1 [Ex. 322, (4S,6R,15S)-11,16-dimethyl-N-(2-naphthylmethyl)-9,12,17-trioxo-6-(pentanoylamino)-2-thia-8,11,16-triazatricyclo[16.3.1.0^4,8]docosa-1(22),18,20-triene-15-carboxamide] yielded an inhibition at 10 µM [6] of 60%.
With CN1CC(=O)N2C[C@@H](NC(=O)Cc3ccc4ccccc4c3)C[C@H]2COc2ccc(F)cc2C(=O)N(C)[C@H](C(=O)NCc2cccc3ccccc23)CCC1=O [Ex. 501, (2S,11S,19aS)-15-fluoro-7,12-dimethyl-2-{[2-(2-naphthyl)acetyl]amino}-N-(1-naphthylmethyl)-5,8,13-trioxo-2,3,6,7,8,9, 10,11,12,13,19,19a-dodecahydro-1H,5H-pyrrolo[2,1-c] [1,4,7,12]benzoxatriazacyclo-pentadecine-11-carboxamide] the “TCF/LEF receptor gene activity [% inhibition at 10 μM]” value ([7]; 10 μM) was 100%, the IC50 ([7]; read-out: TCF/LEF receptor gene activity IC50) was 1100 nM and the IC50 [8] was > 50 µM.
